Laboratory results published in US20030049698A1, “Diagnosis and treatment of gastrointestinal disease” (priority 2002, published 2003).

How the values were obtained:
[1] = target: T1, CCK-B/gastrin receptor (Rattus norvegicus, UniProt P30553); conditions: reportedly; cited from earlier work
T1 sequence (P30553 1-452): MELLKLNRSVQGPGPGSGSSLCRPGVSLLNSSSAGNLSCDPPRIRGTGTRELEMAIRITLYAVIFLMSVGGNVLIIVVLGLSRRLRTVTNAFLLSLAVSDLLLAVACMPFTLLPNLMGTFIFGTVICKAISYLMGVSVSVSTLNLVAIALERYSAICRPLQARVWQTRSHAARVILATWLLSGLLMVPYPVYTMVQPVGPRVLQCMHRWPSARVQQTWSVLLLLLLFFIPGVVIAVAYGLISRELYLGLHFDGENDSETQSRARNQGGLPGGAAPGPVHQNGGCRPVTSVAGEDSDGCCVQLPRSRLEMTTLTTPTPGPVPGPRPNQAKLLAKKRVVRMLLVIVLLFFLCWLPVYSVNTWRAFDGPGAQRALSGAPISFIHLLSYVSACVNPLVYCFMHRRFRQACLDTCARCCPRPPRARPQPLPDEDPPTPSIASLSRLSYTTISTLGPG

[2] = system: gastrin deficient mice; assay: Parietal cell and ECL cell counts by immunohistochemistry; type: in vivo
Description: (§1) The mice were fasted 24 hours prior to sacrifice.
(§2) At the time of sacrifice, the stomach was divided into thirds longitudinally. One section was fixed in Carnoy's fixative overnight, and then embedded in paraffin. Routine H&E staining was performed. Parietal cells were stained using an antibody to the β subunit of H+/K+-ATPase MA3-923 (Affinity Bioreagents, Golden, Colo.) at a final dilution of 1:100, as previously described (62). Ten well oriented fundic glands were examined for parietal cell number, with the result expressed as number of parietal cells per gland (51).
Small tissue specimens (2×4 mm) were taken from the greater curvature of the oxyntic mucosa. They were fixed either in 4% 1-Ethyl-3(3-dimethylaminopropyl)-carbodiimide hydrochloride (Sigma, St. Louis, Mo.) for histamine staining, or in 4% paraformaldehyde for VMAT-2 staining, for 8-12 h at 4° C., then rinsed with 20% sucrose in 0.1 M phosphate-buffered saline (pH 7.4). Fresh frozen tissue sections were cut in a cryostat (Bright, Huntington, England) at 10 μm thickness. The sections were thawed onto gelatin-coated glass slides. After washing twice for 10 min with phosphate-buffered saline (pH 7.4), containing 0.25% Triton X-100 (PBS-T), the sections were incubated with either histamine antibody 8431 rabbit (Eurodiagnostic, Mahnö, Sweden) at a final dilution of 1:200 or VMAT-2 antibody B-GP 280-1 (Alpha Diagnostic Int., San Antonio, Tex.) at a dilution of 1:2000 overnight at 4° C. After washing twice with PBS-T (10 min each time), the sections were incubated for 1 h at room temperature with FITC-conjugated goat anti-rabbit IgG (Dako, Glostrup, Denmark) for histamine at a 1:40 dilution or donkey anti-guinea pig IgG (Jacksson InmunoResearch, Göteborg, Sweden) for VMAT-2 at a 1:100 dilution. […] The number of immunostained cells were counted and exressed as number per gland of mucosa.
Parietal and ECL cells were stained immunohistochemically as above. At least ten well oriented glands were then assessed for the number of positively stained cells per gland.

[3] = system: gastrin deficient mice; assay: Electron microscopy of parietal cells (activation, vacuolar canaliculi, lipofuscin bodies); type: in vivo
Description: as §1
Small tissue specimens (<1 mm^3) were taken from the oxyntic gland area and immediately immersed in a mixture of […] 1% glutaraldehyde, 3% formaldehyde, 0.075M sodium phoshpate buffer, pH 7.2, for 6 hours. The specimens were post-fixed in 1% osmium tetroxide for 1 hour, dehydrated in graded acetone solutions and embedded in Epon 812. Ultrathin sections (60-80 nm) were cut on a LKB MK III Ultratome, contrasted with uranyl acetate and lead citrate and examined in a Philips CM10 (Philips,) transmission electron microscope (63). Parietal cells were identified by the presence of secretory canuliculi and/or tubulovesicles, and ECL cells were identified by the presence of characteristic granules and vesicles in the cytoplasm. Point counting methods were used to analyze the voulume density of the various organelles as previously described (64,65). The cells were photographed (nucleated profiles only) at 6,000× magnification; the prints were then enlarged to 20,000× for planimetric analysis. Activated parietal cells were defined as cells having secretory canuliculi in their cytoplasm. The percentage of activated parietal cells was determined by analyzing the electron micrographs of 100 parietal cells per group. Vacuolar canaliculi were defined as canuliculi containing lysosomal bodies and/or vacuoles in their lumen. Lipofuscin bodies were identified by their high electron density (osmiophilia) in the cytoplasm.

[4] = system: gastrin deficient mice; assay: Gastric acid secretion, pyloric ligation, after infusion in gastrin deficient mice; type: in vivo; conditions: 10 nmol/kg/hr, 4 hours pyloric ligation, saline 5.4±2.0 nEq
Description: Animals were operated and sacrificed under anesthesia with Metofane.
as §1
After food deprivation for 24 hours, the mice were anesthetized with avertin, the abdominal cavity was incised, and each stomach was rinsed with 1 ml saline through a canula placed in the pylorus. The pylorus was then ligated and the gastric juice was collected 4 hours later (61). The acidity of the gastric contents was measured by titration with 0.02 N NaOH and expressed as H^+ nEq.

[5] = system: gastrin deficient mice; assay: Gastric fundic mucosa proliferation by BrdU incorporation; type: in vivo; conditions: infusion 10 nmol/kg/hr; G-17 effect at one day; versus saline or G-17 alone
Description: as §1
Immunohistochemical detection of BrdU incorporation was performed using the avidin-biotin monoclonal antibody technique as previously described (51). Ten well oriented oxyntic glands or colonic crypts were counted per slide. Of the ten colonic crypts, 4 were obtained from the rectum, 3 from the descending colon, and 3 from the ascending colon. The BrdU labeling index was calculated by counting the number of BrdU-positive cells per gland/crypt and expressing the result as a percentage of the total number of cells per gland/crypt.

[6] = system: H+/K+-ATPase; assay: H+/K+-ATPase expression by immunohistochemical analysis; type: in vivo, mice; conditions: compared to infusion of saline alone
Description: as §1, §2

Row | Compound | potency relative to YF476 [1] | effect on ECL cell number (histamine or VMAT-2 staining) ([2]; any time point examined) | increase in the number of parietal cells compared to saline ([2]; by day 14 of infusion) [%] | effect on parietal cell number (in words) ([2]; versus saline, or combination versus G-17 alone) | lipofuscin bodies, percentage of cell volume ([3]; 14 day infusion, saline 0.26±0.10%) [%] | vacuolar canaliculi, percentage of cell volume ([3]; 14 day infusion, saline 0.38±0.38%) [%] | activated parietal cells ([3]; after 14 days of infusion, saline 27%) [%] | acid output ([4]; after 14 days of infusion) [nEq] | acid output ([4]; after one day of infusion) [nEq] | acid output ([4]; after six days of infusion) [nEq] | proliferation rate of the gastric fundic mucosa (BrdU incorporation) [5] | effect on H+/K+-ATPase expression (intensity of immunostaining) [6]
1 | Cc1cccc(NC(=O)N[C@@H]2N=C(c3ccccc3)c3ccccc3N(CC(=O)c3ccccc3C)C2=O)c1 [YM022] | about 5 times |  |  |  |  |  |  |  |  |  |  | 
2 | gastrin-17 [G-17] |  | neither G-17, G17-Gly, or the combination influenced ECL cell number | 65 | significant increase in parietal cell number | 1.88±0.27 | 7.50±2.40 | 27 | 12.0±2.2 | 21.8±8.8 | 37.4±9.4 | significantly increased proliferation rate | no effect on H+/K+-ATPase expression
